{"source": "ChEMBL document CHEMBL4609992", "about": "“Discovery of novel small molecule induced selective degradation of the bromodomain and extra-terminal (BET) bromodomain protein BRD4 and BRD2 with cellular potencies” (Bioorg Med Chem, 2020)", "key": {"MOLT-4": {"test_system": "MOLT-4", "assay": "Growth inhibition of human MOLT4 cells assessed as cell growth inhibition incubated for 48 hrs by sulforhodamine B assay", "assay_type": "functional", "settings": "MOLT-4, 48 h"}, "CWR22R": {"test_system": "CWR22R", "assay": "Antiproliferative activity against human 22Rv1 cells assessed as reduction in cell viability", "assay_type": "functional, cell-based"}, "TK-10": {"test_system": "TK-10", "assay": "Growth inhibition of human TK10 cells assessed as cell growth inhibition incubated for 48 hrs by sulforhodamine B assay", "assay_type": "functional", "settings": "TK-10, 48 h"}, "NCI-H358": {"test_system": "NCI-H358", "assay": "Antiproliferative activity against human NCI-H358 cells assessed as reduction in cell viability", "assay_type": "functional, cell-based"}, "MDA-MB-231": {"test_system": "MDA-MB-231", "assay": "Growth inhibition of human MDA-MB-231 cells assessed as cell growth inhibition incubated for 48 hrs by sulforhodamine B assay", "assay_type": "functional", "settings": "MDA-MB-231, 48 h"}, "SW-620": {"test_system": "SW-620", "assay": "Growth inhibition of human SW620 cells assessed as cell growth inhibition incubated for 48 hrs by sulforhodamine B assay", "assay_type": "functional", "settings": "SW-620, 48 h"}, "K562": {"test_system": "K562", "assay": "Growth inhibition of human K562 cells assessed as cell growth inhibition incubated for 48 hrs by sulforhodamine B assay", "assay_type": "functional", "settings": "K562, 48 h"}, "RXF 393": {"test_system": "RXF 393", "assay": "Growth inhibition of human RXF393 cells assessed as cell growth inhibition incubated for 48 hrs by sulforhodamine B assay", "assay_type": "functional", "settings": "RXF 393, 48 h"}, "EKVX": {"test_system": "EKVX", "assay": "Growth inhibition of human EKVX cells assessed as cell growth inhibition incubated for 48 hrs by sulforhodamine B assay", "assay_type": "functional"}, "SNB-75": {"test_system": "SNB-75", "assay": "Growth inhibition of human SNB75 cells assessed as cell growth inhibition incubated for 48 hrs by sulforhodamine B assay", "assay_type": "functional", "settings": "SNB-75, 48 h"}, "OVCAR-8": {"test_system": "OVCAR-8", "assay": "Growth inhibition of human OVCAR8 cells assessed as cell growth inhibition incubated for 48 hrs by sulforhodamine B assay", "assay_type": "functional", "settings": "OVCAR-8, 48 h"}, "COLO 205 [1]": {"test_system": "COLO 205", "assay": "Antiproliferative activity against human COLO205 cells assessed as reduction in cell viability", "assay_type": "functional, cell-based"}, "PC-3": {"test_system": "PC-3", "assay": "Antiproliferative activity against human PC3 cells assessed as reduction in cell viability", "assay_type": "functional, cell-based"}, "NCI-H23": {"test_system": "NCI-H23", "assay": "Growth inhibition of human NCI-H23 cells assessed as cell growth inhibition incubated for 48 hrs by sulforhodamine B assay", "assay_type": "functional", "settings": "NCI-H23, 48 h"}, "CAKI-1": {"test_system": "CAKI-1", "assay": "Growth inhibition of human Caki1 cells assessed as cell growth inhibition incubated for 48 hrs by sulforhodamine B assay", "assay_type": "functional", "settings": "CAKI-1, 48 h"}, "COLO 205 [2]": {"test_system": "COLO 205", "assay": "Growth inhibition of human COLO205 cells assessed as cell growth inhibition incubated for 48 hrs by sulforhodamine B assay", "assay_type": "functional", "settings": "COLO 205, 48 h"}, "TT": {"test_system": "TT", "assay": "Antiproliferative activity against human TT cells assessed as reduction in cell viability", "assay_type": "functional, cell-based"}, "HL-60(TB)": {"test_system": "HL-60(TB)", "assay": "Growth inhibition of human HL-60(TB) cells assessed as cell growth inhibition incubated for 48 hrs by sulforhodamine B assay", "assay_type": "functional", "settings": "HL-60, 48 h"}, "HCC827": {"test_system": "HCC827", "assay": "Antiproliferative activity against human HCC827 cells assessed as reduction in cell viability", "assay_type": "functional, cell-based"}, "RPMI-8226 [3]": {"test_system": "RPMI-8226", "assay": "Growth inhibition of human RPMI8226 cells assessed as cell growth inhibition incubated for 48 hrs by sulforhodamine B assay", "assay_type": "functional", "settings": "RPMI-8226, 48 h"}, "MCF7": {"test_system": "MCF7", "assay": "Growth inhibition of human MCF7 cells assessed as cell growth inhibition incubated for 48 hrs by sulforhodamine B assay", "assay_type": "functional", "settings": "MCF7, 48 h"}, "SR": {"test_system": "SR", "assay": "Growth inhibition of human SR cells assessed as cell growth inhibition incubated for 48 hrs by sulforhodamine B assay", "assay_type": "functional"}, "NCI-H522": {"test_system": "NCI-H522", "assay": "Growth inhibition of human NCI-H522 cells assessed as cell growth inhibition incubated for 48 hrs by sulforhodamine B assay", "assay_type": "functional", "settings": "NCI-H522, 48 h"}, "SF-295": {"test_system": "SF-295", "assay": "Growth inhibition of human SF295 cells assessed as cell growth inhibition incubated for 48 hrs by sulforhodamine B assay", "assay_type": "functional", "settings": "SF-295, 48 h"}, "LNCaP": {"test_system": "LNCaP", "assay": "Antiproliferative activity against human LNCAP cells assessed as reduction in cell viability", "assay_type": "functional, cell-based"}, "M14": {"test_system": "M14", "assay": "Growth inhibition of human M14 cells assessed as cell growth inhibition incubated for 48 hrs by sulforhodamine B assay", "assay_type": "functional", "settings": "M14, 48 h"}, "SNB-19": {"test_system": "SNB-19", "assay": "Growth inhibition of human SNB19 cells assessed as cell growth inhibition incubated for 48 hrs by sulforhodamine B assay", "assay_type": "functional", "settings": "SNB-19, 48 h"}, "MV4-11 [4]": {"test_system": "MV4-11", "assay": "Induction of apoptosis in human MV4-11 cells at < 30 nM measured after 48 hrs by Annexin V-FITC/propidium iodide staining based FACScan flow cytometry relative to control", "assay_type": "functional"}, "MV4-11 [5]": {"test_system": "MV4-11", "assay": "Induction of apoptosis in human MV4-11 cells measured after 24 hrs by Annexin V-FITC/propidium iodide staining based FACScan flow cytometry", "assay_type": "functional, cell-based"}, "MV4-11 [6]": {"test_system": "MV4-11", "assay": "Cell cycle arrest in human MV4-11 cells assessed as accumulation at G1 phase at 100 nM measured after 24 hrs by RNase/propidium iodide staining based FACScan flow cytometry (reference value: 59.66 %)", "assay_type": "functional"}, "[7]": {"biological_target": "Protein cereblon/Bromodomain-containing protein 4/Cullin-4A (Homo sapiens) (UniProt O60885+Q96SW2+Q13619)", "assay": "Protac activity at cereblon/cullin4A/BRD4 in human MV4-11 cells assessed as induction of BRD4 degradation at 50 nM measured after 18 hrs by Western blot analysis relative to control", "assay_type": "cell-based"}, "SN12C": {"test_system": "SN12C", "assay": "Growth inhibition of human SN12C cells assessed as cell growth inhibition incubated for 48 hrs by sulforhodamine B assay", "assay_type": "functional"}, "VCaP": {"test_system": "VCaP", "assay": "Antiproliferative activity against human VCaP cells assessed as reduction in cell viability", "assay_type": "functional, cell-based"}, "RPMI-8226 [8]": {"test_system": "RPMI-8226", "assay": "Antiproliferative activity against human RPMI8226 cells assessed as reduction in cell viability", "assay_type": "functional, cell-based"}, "MV4-11 [9]": {"test_system": "MV4-11", "assay": "Antiproliferative activity against human MV4-11 cells assessed as reduction in cell viability measured after 48 hrs by CellTiter-Glo assay", "assay_type": "functional, cell-based", "settings": "MV4-11, 48 h"}, "HOP-92": {"test_system": "HOP-92", "assay": "Growth inhibition of human HOP92 cells assessed as cell growth inhibition incubated for 48 hrs by sulforhodamine B assay", "assay_type": "functional", "settings": "HOP-92, 48 h"}, "LNCaP-Clone-FGC": {"test_system": "LNCaP-Clone-FGC", "assay": "Antiproliferative activity against human LNCaP-FGC cells assessed as reduction in cell viability", "assay_type": "functional, cell-based"}, "NCI-H226": {"test_system": "NCI-H226", "assay": "Growth inhibition of human NCI-H226 cells assessed as cell growth inhibition incubated for 48 hrs by sulforhodamine B assay", "assay_type": "functional", "settings": "NCI-H226, 48 h"}, "KM12": {"test_system": "KM12", "assay": "Growth inhibition of human KM12 cells assessed as cell growth inhibition incubated for 48 hrs by sulforhodamine B assay", "assay_type": "functional", "settings": "KM12, 48 h"}}}
{"molecule": "COc1ccccc1S(=O)(=O)Nc1ccc2c3c(cc(CCC(=O)NCCCCNc4cccc5c4C(=O)N(C4CCC(=O)NC4=O)C5=O)cc13)C(=O)N2C", "note": "(centres undefined)", "values": [{"measurement": "GI50", "setting": "MOLT-4", "result": 31, "unit": "nM"}, {"measurement": "IC50", "setting": "CWR22R", "result": 81, "unit": "nM"}, {"measurement": "GI50", "setting": "TK-10", "result": 895, "unit": "nM"}, {"measurement": "IC50", "setting": "NCI-H358", "result": 1380, "unit": "nM"}, {"measurement": "GI50", "setting": "MDA-MB-231", "result": 32, "unit": "nM"}, {"measurement": "GI50", "setting": "SW-620", "result": 249, "unit": "nM"}, {"measurement": "GI50", "setting": "K562", "result": 422, "unit": "nM"}, {"measurement": "GI50", "setting": "RXF 393", "result": 864, "unit": "nM"}, {"measurement": "GI50", "setting": "EKVX", "result": 7.48, "unit": "µM"}, {"measurement": "GI50", "setting": "SNB-75", "result": 89, "unit": "nM"}, {"measurement": "GI50", "setting": "OVCAR-8", "result": 360, "unit": "nM"}, {"measurement": "IC50", "setting": "COLO 205 [1]", "result": 156, "unit": "nM"}, {"measurement": "IC50", "setting": "PC-3", "result": 932, "unit": "nM"}, {"measurement": "GI50", "setting": "NCI-H23", "result": 37.5, "unit": "µM"}, {"measurement": "GI50", "setting": "CAKI-1", "result": 2630, "unit": "nM"}, {"measurement": "GI50", "setting": "COLO 205 [2]", "result": 495, "unit": "nM"}, {"measurement": "IC50", "setting": "TT", "result": 37.4, "unit": "nM"}, {"measurement": "GI50", "setting": "HL-60(TB)", "result": 22, "unit": "nM"}, {"measurement": "IC50", "setting": "HCC827", "result": 580, "unit": "nM"}, {"measurement": "GI50", "setting": "RPMI-8226 [3]", "result": 683, "unit": "nM"}, {"measurement": "GI50", "setting": "MCF7", "result": 303, "unit": "nM"}, {"measurement": "GI50", "setting": "SR", "result": 122, "unit": "nM"}, {"measurement": "GI50", "setting": "NCI-H522", "result": 2740, "unit": "nM"}, {"measurement": "GI50", "setting": "SF-295", "result": 3.22, "unit": "µM"}, {"measurement": "IC50", "setting": "LNCaP", "result": 620, "unit": "nM"}, {"measurement": "GI50", "setting": "M14", "result": 937, "unit": "nM"}, {"measurement": "GI50", "setting": "SNB-19", "result": 475, "unit": "nM"}, {"measurement": "Activity", "setting": "MV4-11 [4]", "result": 86.86, "unit": "%"}, {"measurement": "Activity", "setting": "MV4-11 [5]", "result": "Dose-dependent effect"}, {"measurement": "Activity", "setting": "MV4-11 [6]", "result": 71.37, "unit": "%"}, {"measurement": "Activity", "setting": "[7]", "result": 100, "unit": "%"}, {"measurement": "GI50", "setting": "SN12C", "result": 447, "unit": "nM"}, {"measurement": "IC50", "setting": "VCaP", "result": 250, "unit": "nM"}, {"measurement": "IC50", "setting": "RPMI-8226 [8]", "result": 440, "unit": "nM"}, {"measurement": "IC50", "setting": "MV4-11 [9]", "result": 12.2, "unit": "nM"}, {"measurement": "GI50", "setting": "HOP-92", "result": 26, "unit": "nM"}, {"measurement": "IC50", "setting": "LNCaP-Clone-FGC", "result": 910, "unit": "nM"}, {"measurement": "GI50", "setting": "NCI-H226", "result": 456, "unit": "nM"}, {"measurement": "GI50", "setting": "KM12", "result": 675, "unit": "nM"}]}
